The test system of assay [1] is hSOD1-G93A transgenic mice. Type of assay: in vivo. Conditions: for Falling time (s) On 1st day of gavage / Falling time (s) On 7th day of gavage / Falling time (s) On 14th day of gavage / Falling time (s) On 21th day of gavage / Falling time (s) On 28th day of gavage: intragastric once a day, 40 mg/kg (positive control 2 mg/kg), rod 12 r/min, cut-off 10 min; for Falling time (s) On 1st day of gavage: 1 h after 1st administration; for Falling time (s) On 7th day of gavage: 1 h after 7th administration; for Falling time (s) On 14th day of gavage: 1 h after 14th administration; for Falling time (s) On 21th day of gavage: 1 h after 21st administration; for Falling time (s) On 28th day of gavage: 1 h after 28th administration; for Effect on delaying the progression of amyotrophic lateral sclerosis (in words): judged from fall time and mice surviving more than 120 days. Here is the method:
(§1) 10 two-months wild-type BALB/C mice were used as the normal control group, and 110 two-months hSOD1-G93A transgenic mice were randomly divided into 11 groups, 10 mice for each group, and 11 groups are blank group, positive control group, the drug compositions 1-3 of the present invention groups, and the control 1-6 groups, respectively.
All mice were adaptively fed for three weeks, and a rotating rod experiment was performed once a week. The diameter of the rotating rod was 3.5 cm, and its rotating speed was 12 r/min. Experiment on each mouse was carried out three times in parallel, with a 5 min interval. The longest time recorded was the fall time of mice, the mice with a fall time of shorter than 7 min in the third rotating rod experiment were excluded, and then mice received drugs by intragastric administration, in which the normal control group and the blank group were given physiological saline, while the positive control group, the drug combinations 1-3 groups, and the control groups 1-6 were given corresponding drugs, with the volume of 0.5 ml. Amongst, the gavage dose of positive control group was 2 mg/kg body weight, and the gavage dose of drug combinations 1-3 and controls 1-6 groups was both 40 mg/kg body weight. For all of groups, drugs were given once a day for 4 weeks. After 1 h of the 1st, 7th, 14th, 21st, and 28th intragastric administrations, a stick-rotation experiment was performed. In one experiment, each mouse was tested 3 times at interval of 5 minutes, and the longest time recorded was the fall time of mice. […] After the 28th gavage, the mice were continually fed, and the number of mice surviving for more than 120 days in each group was recorded, in which if they were placed in the supine position, the mice could not turn to the prone position within 30 S, and thus they were determined as dead.

Assay [2] deals with hSOD1-G93A transgenic mice. Put plainly: Number of mice surviving more than 120 days. The settings on record: intragastric once a day for 4 weeks, 40 mg/kg (positive control 2 mg/kg), 8-9 mice per group. Type of assay: in vivo. Here is the method: as §1
All mice were adaptively fed for three weeks, and a rotating rod experiment was performed once a week. The diameter of the rotating rod was 3.5 cm, and its rotating speed was 12 r/min. Experiment on each mouse was carried out three times in parallel, with a 5 min interval. The longest time recorded was the fall time of mice, the mice with a fall time of shorter than 7 min in the third rotating rod experiment were excluded, and then mice received drugs by intragastric administration, in which the normal control group and the blank group were given physiological saline, while the positive control group, the drug combinations 1-3 groups, and the control groups 1-6 were given corresponding drugs, with the volume of 0.5 ml. Amongst, the gavage dose of positive control group was 2 mg/kg body weight, and the gavage dose of drug combinations 1-3 and controls 1-6 groups was both 40 mg/kg body weight. […] In one experiment, each mouse was tested 3 times at interval of 5 minutes, and the longest time recorded was the fall time of mice. […]

In the case of `Nc1nc2ccc(OC(F)(F)F)cc2s1` [Positive control, Riluzole], in assay [1], the “Falling time (s) On 1st day of gavage” value was 479.2 ± 31.8 s, the “Falling time (s) On 7th day of gavage” value was 389.5 ± 27.7 s, the “Falling time (s) On 14th day of gavage” value was determined as 259.3 ± 29.5 s and the “Falling time (s) On 21th day of gavage” value was 187.4 ± 17.5 s. Besides, the “Falling time (s) On 28th day of gavage” value in assay [1] came out at 129.3 ± 15.4 s.
For `O=C(/C=C/c1ccc(O)c(O)c1)O[C@@H]1C[C@](O)(C(=O)O)C[C@@H](O)[C@H]1O` [Control 1, 3-O-caffeoylquinic acid], in assay [1] (gavage 4 weeks), the “Effect on delaying the progression of amyotrophic lateral sclerosis (in words)” value is given as “showed to some extent the effect on delaying the progression of amyotrophic lateral sclerosis”. Also, in assay [1], the “Falling time (s) On 1st day of gavage” value is on record as 468.9 ± 26.1 s, the “Falling time (s) On 7th day of gavage” value amounted to 315.3 ± 27.6 s, the “Falling time (s) On 14th day of gavage” value was 221.5 ± 22.8 s and the “Falling time (s) On 21th day of gavage” value was 127.8 ± 19.5 s. For the same compound, the “Falling time (s) On 28th day of gavage” value in assay [1] was found to be 89.1 ± 18.5 s. Besides, in assay [2], the “Survival numbers (number of mice surviving for more than 120 days)” value amounted to 3.
Consider creatine phosphate sodium [Control 6], for which, in assay [1] (gavage 4 weeks), the “Indexes for the fall time and the number of mice surviving more than 120 days, comparison between groups (in words)” value is reported as “roughly equivalent to those in the blank group”; the “Effect on delaying the progression of amyotrophic lateral sclerosis (in words)” value is “don't have obvious effect on delaying the progression of this disease”. Moreover, in assay [1], the “Falling time (s) On 1st day of gavage” value came to 475.8 ± 22.8 s, the “Falling time (s) On 7th day of gavage” value was 284.6 ± 19.3 s, the “Falling time (s) On 14th day of gavage” value was determined as 155.8 ± 24.8 s and the “Falling time (s) On 21th day of gavage” value is 71.3 ± 12.3 s. Moreover, in assay [1], the “Falling time (s) On 28th day of gavage” value is listed as 44.78 ± 11.3 s. Further, in assay [2], the “Survival numbers (number of mice surviving for more than 120 days)” value came to 2.

The record behind these values is patent US20210137951A1, “DRUG COMBINATION FOR TREATMENT OF AMYOTROPHIC LATERAL SCLEROSIS, PREPARATION METHOD AND USE THEREOF” (priority 2018, published 2021).
